The structures appear in SMILES notation.

A short description of this data set: gradient 5% acetonitrile 3 min, to 50% in 2 min, to 85% in 15 min, held 3 min, 100 µL/min. The note with it: column: Zorbax Extend-C18 2.1 x 50 mm; eluents: water / acetonitrile, 0.1% formic acid. In a few lines: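 Pure standards were run in mixtures of ~100 molecules by HPLC coupled to a quadrupole time-of-flight mass spectrometer. The column was a Zorbax Extend-C18 (2.1 × 50 mm, 1.8 μm) at 100 μL/min, with water and acetonitrile each containing 0.1% formic acid, in positive and negative ionization mode. Dead and dwell volumes were 40 μL and 900 μL. Retention time was taken from computationally picked adduct peaks, each manually inspected, with data collected over 3 months.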
`Cc1ccc(S(=O)(=O)N2CCC(n3c(-c4ccco4)nc4cccnc43)C2)cc1Cl` (stereo not given): the RP-LC retention time came to 999 s. The same measure for `CCNC(=O)CC1=C2CCCCC2NC1=O` (stereo not given): 592 s; for `CNCc1ccc(-c2cc(Cl)cc(Cl)c2)o1`: 658 s; for `O=C(CCc1conc1-c1ccc(F)cc1)NC1CCN(Cc2ccccc2)CC1`: 657 s. The same measure for `CCc1ccc(C(=O)Nc2ccc3c(c2)Sc2ncccc2C(=O)N3C)cc1`: 818 s; for `O=C(Nc1ccc2c(c1)CCC2)C1CCc2nc(N3CCOCC3)ncc2C1` (stereo not given): 793 s. The value for `COc1ccc(S(=O)(=O)N2CCCC(C(=O)N3CCN(c4ccccc4)CC3)C2)cc1Cl` (stereo not given) was 1010 s; that for `CNC(=O)c1c(C)nn(-c2ccccc2)c1-n1cccc1` was 761 s; that for `COC[C@@H](c1ccc(C(F)(F)F)cc1)N1CCN(C2(C)CCN(C(=O)c3c(C)ncnc3C)CC2)C[C@@H]1C` was 744 s. For the compound `Cc1ccc(C(=O)N2CCC(c3nc4ccncc4n3CC(C)C)C2)s1` (stereo not given), the RP-LC retention time came out at 569 s.

The compound `Cc1sc(NC(=O)c2ccccc2)nc1-c1ccc2c(c1)NC(=O)C(C)O2` (stereo not given) showed an RP-LC retention time of 931 s.

Regarding `COc1ccc(N2CC(c3noc(-c4ccc(C(C)(C)C)cc4)n3)CC2=O)cc1OC` (stereo not given), the RP-LC retention time was found to be 1140 s. For `Cc1ccc(NC(=O)N2CCC(OC3CCN(S(C)(=O)=O)CC3)CC2)cc1C`, the RP-LC retention time stood at 803 s. The same measure for `CCn1ccc2sc(C)c(C(=O)N3CCN(CC(C)C)CC3)c2c1=O`: 574 s; for `COc1ccc2c(c1)C1(CCN(S(=O)(=O)c3ccc(F)cc3F)C1)C(=O)N2` (stereo not given): 841 s. The value for `CCCCN(C)Cc1nnn(-c2ccc(F)cc2)c1C` was 617 s; that for `CCOC(=O)c1noc2ncnc(N3CCN(c4ccc(F)cc4)CC3)c12` was 1010 s.

`Cc1nc(-c2csc(S(=O)(=O)N3CCCC(C(=O)Nc4ccc(Cl)cc4F)C3)c2)no1` (stereo not given) gave an RP-LC retention time of 1050 s.

In the case of `COc1ccc(NC(=O)Cn2ncc3c(c2=O)N(C2CC2)C(=O)CS3)cc1OC`, the RP-LC retention time was found to be 647 s. The value for `O=C(NCCC1CCN(C(=O)Nc2ccc(F)cc2F)CC1)c1ccco1` was 700 s; that for `CC1CCN(C(=O)c2ccc(Cn3cncn3)cc2)CC1` was 672 s; that for `Cn1ncc2c(Nc3ccc([N+](=O)[O-])cc3)nc(Cl)nc21` was 963 s. The value for `O=C(CCl)NC1(C(=O)O)CCCC1` was 661 s; that for `CCn1cnc(S(=O)(=O)N2CCC(C(=O)Nc3cc(C)ccc3OC)CC2)c1` was 674 s; that for `CSc1ccc(-c2nc3cccc(C)n3c2Nc2ccccc2C)cc1` was 808 s.

Regarding `CC(C)c1cccc(Nc2nc3ccncc3n(C(C)C)c2=O)c1`, the RP-LC retention time was 707 s. The value for `Cc1cccn2cc(C(=O)NCc3ccc(N(C)C)cc3)nc12` was 565 s; that for `Cc1nc(CC(=O)Nc2nc(-c3ccc(Cl)cc3)c(C)s2)cs1` was 983 s; that for `Cc1ccccc1N1CCN(CCc2nnc3n2CCCC3)CC1` was 573 s. Turning to `CC(=O)N1CCc2cc(-c3ccc(C(=O)NCCN4CCCCCC4)cc3)ccc21`, the RP-LC retention time was 576 s. The value for `CC1CCCCN1CCCNC(=O)CCC(=O)N1CCc2c(c(C(=O)N3CCCC3)nn2C)C1` (stereo not given) was 586 s.

`COc1ccc(OC)c(NC2=NS(=O)(=O)C(c3ccccc3)=C2C)c1` yielded an RP-LC retention time of 948 s. The same measure for `Cc1ccc(CNC(=O)c2cc3c(n(-c4ccc(C(F)(F)F)cc4)c2=O)CCCC3=O)o1`: 634 s; for `Cc1cc(C(=O)NC2CC2)nn1C`: 600 s; for `Cc1noc(C2CN(C(=O)c3ccc(=O)n(C)n3)C2)n1`: 530 s. The value for `COc1ccc(CNC(=O)C2(C)Cc3ccccc3C(=O)N2Cc2ccco2)cc1` (stereo not given) was 860 s. The value for `CCCN(CC1CCOC1)C(=O)Nc1ccc(C)cc1Cl` (stereo not given) was 902 s; that for `O=C1CC(c2noc(CCc3ccccc3)n2)CN1c1ccc(F)cc1` (stereo not given) was 966 s; that for `CCCC(NC(=O)Cc1cccc(F)c1)C(=O)Nc1nc2ccccc2[nH]1` (stereo not given) was 691 s.

For `O=C(NCCN1CCCCC1)C1CCc2sc(C(=O)N3CCCCC3)cc2C1` (stereo not given), the RP-LC retention time amounted to 558 s.

As for `CN1CCN(C(CNC(=O)C(=O)Nc2ccc(Cl)cc2)c2ccc3c(c2)OCO3)CC1` (stereo not given), the RP-LC retention time stood at 716 s. The same measure for `COc1ccc(C(=O)N2CCC3(C2)C(=O)Nc2ccc(OC)cc23)c(OC)c1` (stereo not given): 692 s; for `O=C(c1ccoc1)N1CCCC1c1nc(-c2ccc(F)cc2F)no1` (stereo not given): 869 s; for `CCN(CC)S(=O)(=O)c1ccc2c(c1)CC(C(=O)NCCc1ccc(C)cc1)N2C(C)=O` (stereo not given): 842 s. For `COc1ccc(N2CC(c3noc(-c4cc(F)cc(F)c4)n3)CC2=O)cc1` (stereo not given), the RP-LC retention time was 969 s.

In the case of `CCc1ccc(C(=O)CC2(O)C(=O)Nc3c(C)cccc32)cc1` (stereo not given), the RP-LC retention time stood at 807 s. The same measure for `Cc1cc(C)cc(NC(=O)C2CCCN2S(C)(=O)=O)c1` (stereo not given): 782 s. Compound `O=C(CN1C(=O)CCC1=O)N1CC(c2nc(-c3cccc(C(F)(F)F)c3)no2)C1` showed an RP-LC retention time of 754 s. The same measure for `O=C(Nc1cnc(N2CCCC2)nc1)c1ccc(Br)cc1`: 796 s. Take `COc1ccc(NC(=O)Cn2cccc(-c3nc(-c4ccc(OC)c(OC)c4)no3)c2=O)c(OC)c1`: the RP-LC retention time was found to be 788 s. Consider `COC(=O)c1cccc(C(=O)Nc2cccc(OC)c2)n1`, for which the RP-LC retention time was 817 s.

`Cc1ccc(Sc2nccnc2N2CCCC(C(=O)Nc3ccc(C)cc3C)C2)cc1` (stereo not given): the RP-LC retention time is 1150 s. The same measure for `CCc1cc(C(=O)NC2CC2)nc2cc(-c3ccsc3)nn12`: 1010 s; for `Cc1ccc(NC(=O)N2CCC(CC(=O)N3CCCCC3)CC2)cc1C`: 793 s; for `Cc1sc2ccn(CC(C)C)c(=O)c2c1C(=O)NCc1cc(F)ccc1F`: 1040 s. The value for `CCc1nnc(-c2cc(C)n(CC(=O)Nc3cc(F)cc(F)c3)c2C)o1` was 844 s.

With `CN(C)S(=O)(=O)c1ccc2c(c1)N(CC(=O)NCCc1ccccc1)C(=O)C1CCCCN21` (stereo not given), the RP-LC retention time turned out to be 918 s. The value for `COc1ccc(C2Cn3cnc(C(=O)N4CCC(C(=O)NC(C)C)CC4)c3CO2)cc1` (stereo not given) was 669 s. The same measure for `CCOC(=O)c1sc(NC(=O)CN2C(=O)c3ccccc3C2=O)c(SC#N)c1C`: 912 s; for `Cc1cc(NC(=O)Cn2ccn3nc(-c4ccc(F)cc4)c(CO)c3c2=O)n[nH]1`: 666 s; for `CCc1nc2onc(C)c2c(=O)n1CC(=O)NCCC1=CCCCC1`: 899 s. Regarding `CCN1C(=O)CCc2cc(NS(=O)(=O)c3cccc(Br)c3)ccc21`, the RP-LC retention time stood at 833 s. The same measure for `CCOC(=O)c1c(C)oc2nc(C)nc(NCCCc3ccccc3)c12`: 1280 s. In the case of `COc1ccc(-c2cc(=O)n3c4ccccc4n(CC(=O)Nc4ccc(F)cc4)c3n2)cc1`, the RP-LC retention time stood at 1010 s.

On to `O=S(=O)(c1ccc2nncn2c1)N(Cc1ccccc1)c1cccc(F)c1`, for which the RP-LC retention time amounted to 851 s. The value for `CC1=NS(=O)(=O)N(C)C=C1C(=O)OCc1cc(F)ccc1F` was 935 s; that for `CCC(=O)N1CCCN(C2=NS(=O)(=O)C(c3ccc(Cl)cc3)=C2C)CC1` was 661 s. The same measure for `CCOC(=O)C1CCN(S(=O)(=O)c2cc(-c3c(CC)noc3NC(C)=O)ccc2OC)CC1`: 797 s; for `O=C(CCCn1nc(-c2ccccc2)c2cc(Cl)ccc21)N1CCN(c2ccccn2)CC1`: 764 s.

In turn, `Cc1nnc2ccc(NC(=O)Nc3ccccc3F)cn12` yielded an RP-LC retention time of 658 s. The same measure for `CCc1nc2c(c(=O)n1CC(=O)Nc1ccc(C)cc1)CN(Cc1ccccc1)CC2`: 672 s; for `CCOC(=O)c1c(C)[nH]c(C(=O)N2CCC(CC(=O)NCc3ccc(C)cc3)CC2)c1C`: 822 s; for `COC(=O)c1ccc(CSc2nc3ccccc3[nH]2)cc1`: 648 s. `O=C(Cc1csc(-c2c(Cl)cccc2Cl)n1)NCCc1c[nH]c2ccccc12` returned an RP-LC retention time of 925 s. The same measure for `O=C1CCc2cc(S(=O)(=O)N3CCN(c4ccc(F)cc4)CC3)cc3c2N1CCC3`: 966 s; for `CN1C(=O)c2cc(S(=O)(=O)NC3CCCCCC3)ccc2Oc2cccnc21`: 1000 s; for `COc1ccc(Cl)cc1NS(=O)(=O)c1cc(-c2cc(C(F)(F)F)[nH]n2)sc1C`: 1060 s. The value for `O=C(c1cc(-c2ccc(F)cc2)c[nH]1)N1CCc2ccccc21` was 1000 s.

Regarding `CCCn1cc(S(=O)(=O)Nc2ccccc2F)c2cccnc21`, the RP-LC retention time is 869 s.

As for `COc1cccc(-c2nc(-c3ccc4c(c3)nc(C)c(=O)n4C)no2)c1`, the RP-LC retention time turned out to be 843 s.

Source of the values: the METLIN SMRT retention time set (Domingo-Almenara et al. 2019).
